In patent US20090247495A1, “CU[…] AND USES THEREOF” (priority 2007, published 2009):
Values after ≈ are worked out from the molar mass of the structure shown.

How the values were obtained:
HL60 and U937 cells = assay: Cytoskeletal staining (F-actin, confocal); type: cell-based, human; conditions: two days
Protocol: HL60 and U937 cells were incubated with cucurbitacin B for two days at 37° C. Then the cells were centrifuged and fixed in 4% paraformaldehyde, permeabilized with 0.1% Triton X-100 in PBS, and incubated with FITC-conjugated anti-β-tubulin antibody, followed by rhodamine-phalloidin to detect filamentous F-actin. Confocal images were collected on a Leica microscope. […] Untreated HL 60 and U937 cells were depicted in FIGS. 15A and 15C, and cultured HL 60 and U937 cells were depicted in FIGS. 15B and 15D. • 6.2.8 Cucurbitacin B and Cucurbitacin D Inhibited Stat3 Activation and Stimulated Erk and Hsp27 Activation in HepG2, HT29 and MCF-7 Cells

[1] = tested on: colon cancer cell line (HT29); assay: MTT cell cytotoxicity assay, HT29; type: cell-based, human; conditions: Homo sapiens, HT-29; 48 hours; read-out: IC50
Protocol: Three human cancer cell lines (HepG2(liver), HT29(colon) and MCF-7(breast)) were purchased from American Type Culture Collection (ATCC, Manassas, Va., USA). The cells were cultured in RPMI 1640 medium supplemented with 5% (v/v) fetal bovine serum (FBS) and 100 units/ml penicillin and streptomycin (Invitrogen Life Technologies) in a humidified 5% CO2 atmosphere at 37° C.
The cytotoxic effect of CuB and CuD on these three cancer cell lines were determined using MTT (3-[4,5-dimethylthiazol-2-yl]-2,5-diphenyl tetrazolium bromide) labeled cell cytotoxicity assay. A total of 1×10^4 cells were seeded into a 96-well plate for 24 hours prior to cucurbitacin B (CuB) or cucurbitacin D (CuD) treatment. They were then treated with different dosages of CuB/CuD for 48 hours. After the treatment, 20 μl of MTT (5 mg/ml) was added to each well and incubated for 4 hrs. Then the medium was discarded and 100 μl of dimethyl sulfoxide was added. The absorbance at 570 nm was then measured by using FLUOstar OPTIMA equipment (BMG, LABTECH GmbH, Germany). The percentage of inhibition against different dosages of CuB/CuD were plotted using the Prism software and the 50% inhibition concentration (IC50) were obtained.

HepG2 = assay: Hollow fiber assay, HepG2; type: in vivo, nude mice; conditions: 0.2 mg/kg, i.p., s.c. and p.o., up to 14 days
Protocol: The hollow fiber assay (HFA) was developed by the NCI as a high-throughput, preliminary in vivo screening assay for the evaluation of anti-cancer agents. Human liver cancer cell lines HepG2 and HepG2-resistant (HepG2-R) were in vitro cultured inside hollow fibers for a short term (48 hours), followed by in vivo implantation at s.c. sites of the nude mice. Mice were treated with negative control (0.5% CMC), positive control (10 mg/kg 5-Fluorouracil) and cucurbitacin B (0.2 mg/kg) for up to 14 days. Then the fibers were excised and analyzed for cell viability by MTT assay. The efficacies of cucurbitacin B against HepG2 and HepG2-R were expressed as the percentage of the results obtained in the negative control group.

Erk1/2 = assay: Western blot of Erk1/2 in HepG2, HT29 and MCF-7 cells; type: cell-based, human
Protocol: The human cancer cells line were serum starved for 18 hours prior to CuB/CuD treatment. Cells were incubated in a 6-well plate filled with 5 ml growth medium (RPMI with 0.2% FBS and 1% PS) at the cell density of 1×10^5 cells/ml, in the presence or absence of two different dosages of CuB/CuD for various time intervals. The drug treatment was terminated by centrifugation at 1,500 rpm for 5 minutes and the cells were rinsed twice with phosphate-buffered saline and lysed at 4° C. in a lysis buffer containing 50 mM Tris-HCl, pH7.5, 100 mM NaCl, 5 mM EDTA, 40 mM NaP2O7, 1% Triton X-100, 1 mM dithiothreitol, 200 μM Na3VO4, 100 uM phenylmethysufonyl fluoride, 2 μg/ml leupeptin, 4 μg/ml aprotinin and 0.7 μg/ml pepstatin. The insoluble protein lysate were removed by centrifugation for 10 minutes at 13,000 rpm. Fifteen micrograms of protein lysate was resolved using 10% SDS-polyacryamide gel electrophoresis (PAGE) and then subjected to western blot anaylsis. Western blots were performed with anti-Stat3, anti-Erk1/2 and anti-hsp27 antibodies specific for phosphor- and total Stat3, Erk and hsp27 proteins. The protein bands were then visualized with the Enhanced Chemiluminescence Plus (ECL Plus) detection system (Amersham). • 6.2.8.1 Inhibition Effect Cucurbitacin B/Cucurbitacin D on Stat3 Activation in HepG2 and HT29 Cells
Cells were incubated either with CuB or CuD (25 ug/ml or the dosage of IC50) for various time intervals (5, 10 or 30 mins, 1 or 4 hours). The Stat3 activation was detected by western blot.

Ras-GTP = assay: GTPase pull-down assay (GST-Raf1-RBD) in K562 cells; type: cell-based, human; conditions: 50 μM, 2 minutes to 4 hours
Protocol: Lysate with 500 μg protein were used to determined the Ras-GTP content by the Glutathione S-transferase(GST)-RBD(Ras-binding domain of Raf) pull down assay. The treated and control cells were lysed in lysis buffer (25 mMTris-HCl, pH7.5, 150 mM NaCl, 5 mM MgCl2, 1% NP-40, 1 mM DTT and 5% glycerol) for 5 minutes at 4° C. Soluble cell lysates were obtained by centrifuged at 17000 g for 5 minutes. 500 μg cell lysate were collected and incubated with 80 μg GST-Raf1-RBD in 50 mM Tris-HCl, pH7.2, 150 mM NaCl, 0.5% Triton X-100, 5 mM MgCl2, 1 m MDTT and 10% glycerol for 1 hour at 4° C. The beads were washed with lysis buffer for 3 times and then resuspended and boiled in 2×sample buffer at 100° C. for 5 minutes. 25 μsupernatants were collected by centrifuged at 7200 g for 2 minutes and then resolved in 15% SDS-PAGE followed by western blot analysis using anti-Ras antibody. • 6.1.8 Laboratory-Scale Preparation of Cucurbitacin B and Cucurbitacin D
In order to further investigate if cucurbitacin B block the Stat3 activation is truly through Erk pathway in K562 cells, the ability of cucurbitacin B to inhibit the Ras/Raf/Mek/Erk pathway was determined by measuring Ras-GTP, phosphorylation of c-Raf, Mek1/2, Erk1/2 and Elk-1 in K562 cells. The cells were incubated with 50 μM cucurbitacin B for the indicated time intervals (2 minutes, 5 minutes, 10 minutes, 30 minutes, 1 hour and 4 hours). […]

Structure (SMILES): CC(=O)OC(C)(C)/C=C/C(=O)[C@](C)(O)C1[C@H](O)C[C@@]2(C)C3CC=C4C(C[C@H](O)C(=O)C4(C)C)[C@]3(C)C(=O)C[C@]12C (stereo partly shown) [cucurbitacin B]
- effect on cytoskeletal network (F-actin) (HL60 and U937 cells): rapid and improper polymerization of the F-actin network
- IC50 [1]: 0.31 mg/L (≈ 0.555 µM)
- cell growth in hollow fibers (HepG2): potently inhibited
- expression of Erk1/2 (Erk1/2; HT29, 5 minutes of treatment): up-regulated the expression of Erk1/2 significantly
- expression of Erk1/2 (Erk1/2; HepG2, 30 minutes of treatment): up-regulated the expression of Erk1/2 significantly
- Erk activation (Erk1/2; MCF-7 cells, 5 minutes): significant Erk activation
- Ras-GTP activation (Ras-GTP): no significant change
